Results reported in BindingDB's records for doi:10.1021/jm00157a006 (1987).
Non-standard residues stand in square brackets, D forms with d. Residues, ends and D or L forms follow the SMILES beside them. *: point of attachment. Ala(1-Adamantyl) = N[C@@H](CC12CC3CC(CC(C3)C1)C2)C(=O)O; Sta = CC(C)C[C@H](N)[C@@H](O)CC(=O)O; Cbz = O=C(OCc1ccccc1)*; Boc = CC(C)(C)OC(=O)*

Tests used:
Renin (Sus scrofa) [1] = experiment: In vitro inhibitory activity against hog plasma renin
Renin (Sus scrofa) [2] = experiment: Inhibition of hog […] plasma renin activity

Row | IC50 (Renin (Sus scrofa) [2]) [nM] | Compound | IC50 (Renin (Sus scrofa) [1]) [nM]
1 |  | COC(=O)C[C@H](O)[C@H](CC(C)C)NC(=O)[C@H](C)NC(=O)C[C@H](O)[C@H](CC(C)C)NC(=O)[C@H](Cc1ccccc1)NC(=O)[C@H](Cc1ccccc1)NC(=O)OC(C)(C)C [4-(2-{4-[2-(2-tert-Butoxycarbonylamino-3-phenyl-propionylamino)-3-phenyl-propionylamino]-3-hydroxy-6-methyl-heptanoylamino}-propionylamino)-3-hydroxy-6-methyl-heptanoic acid methyl ester] | 52
2 |  | COC(=O)C[C@H](O)[C@H](CC(C)C)NC(=O)[C@H](C)NC(=O)C[C@H](O)[C@H](CC(C)C)NC(=O)[C@H](Cc1c[nH]cn1)NC(=O)[C@H](CC12CC3CC(CC(C3)C1)C2)NC(=O)OC(C)(C)C [4-(2-{4-[2-(3-Adamantan-1-yl-2-tert-butoxycarbonylamino-propionylamino)-3-(1H-imidazol-4-yl)-propionylamino]-3-hydroxy-6-methyl-heptanoylamino}-propionylamino)-3-hydroxy-6-methyl-heptanoic acid methyl ester] (Boc-[Ala(1-Adamantyl)]H[Sta]A[Sta]-OMe) | 600
3 | 15 | COC(=O)C[C@H](O)[C@H](CC(C)C)NC(=O)[C@H](C)NC(=O)C[C@H](O)[C@H](CC(C)C)NC(=O)[C@@H](NC(=O)[C@H](Cc1c[nH]c2ccccc12)NC(=O)OCc1ccccc1)C(C)C [4-[2-(4-{2-[2-Benzyloxycarbonylamino-3-(1H-indol-3-yl)-propionylamino]-3-methyl-butyrylamino}-3-hydroxy-6-methyl-heptanoylamino)-propionylamino]-3-hydroxy-6-methyl-heptanoic acid methyl ester] (Cbz-WV[Sta]A[Sta]-OMe) | 
